Measurements from ChEMBL document CHEMBL1201862, “PubChem BioAssay data set” (2004).
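Growth conditions: 96-well plates. Treatment: test compound, 48 hours, 5 concentrations. Analysis: linear interpolation between bracketing concentrations; unreached endpoints set to highest concentration. GI50 is the concentration that inhibits growth by half.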 Active and inactive are the calls of the source. No stated cut-off is given here; in the data, active = GI50 up to about 1.1 µM and inactive = higher.

Assays:
Experiment in all cases: DTP human tumour cell line panel, 48 h
MCF7 = test system: MCF7
KM12 = test system: KM12
NCI-H23 = test system: NCI-H23
OVCAR-4 = test system: OVCAR-4
SK-MEL-28 = test system: SK-MEL-28
OVCAR-3 = test system: OVCAR-3
IGROV-1 = test system: IGROV-1
HL-60 = test system: HL-60
T47D = test system: T47D
OVCAR-8 = test system: OVCAR-8
SK-OV-3 = test system: SK-OV-3
RPMI-8226 = test system: RPMI-8226
SW-620 = test system: SW-620
EKVX = test system: EKVX
HCC 2998 = test system: HCC 2998
UACC-62 = test system: UACC-62
A498 = test system: A498
Hs-578T = test system: Hs-578T
SF-295 = test system: SF-295
XF498 = test system: XF498

Compound | GI50 (MCF7) | GI50 (KM12) | GI50 (NCI-H23) | GI50 (OVCAR-4) | GI50 (SK-MEL-28) | GI50 (OVCAR-3) | GI50 (IGROV-1) | GI50 (HL-60) | GI50 (T47D) | GI50 (OVCAR-8) | GI50 (SK-OV-3) | GI50 (RPMI-8226) | GI50 (SW-620) | GI50 (EKVX) | GI50 (HCC 2998) | GI50 (UACC-62) | GI50 (A498) | GI50 (Hs-578T) | GI50 (SF-295) | GI50 (XF498)
C(=C\c1ccccc1)/COc1ccccc1C(N1CCOCC1)n1nc2ccccc2n1 (centres undefined) | 1.4 µM (inactive) | 5.26 µM (inactive) | 5.35 µM (inactive) | 12.2 µM (inactive) | 10.7 µM (inactive) | 2.18 µM (inactive) | 7.98 µM (inactive) | 0.352 µM (active) | 10.7 µM (inactive) | 3.5 µM (inactive) | 32.4 µM (inactive) | 2.92 µM (inactive) | 4.28 µM (inactive) | 21.2 µM (inactive) | 17.5 µM (inactive) | 3 µM (inactive) | 38.1 µM (inactive) | 7.24 µM (inactive) | 8.95 µM (inactive) | 
COc1c(Cl)c(=O)oc2ccc(Cl)cc12 | > 100 µM (inactive) | > 100 µM (inactive) | > 100 µM (inactive) | > 100 µM (inactive) | > 100 µM (inactive) | > 100 µM (inactive) | > 100 µM (inactive) | > 100 µM (inactive) | > 100 µM (inactive) | > 100 µM (inactive) | > 100 µM (inactive) | > 100 µM (inactive) | > 100 µM (inactive) | 81.7 µM (inactive) | > 100 µM (inactive) | > 100 µM (inactive) | > 100 µM (inactive) | > 100 µM (inactive) | 53.2 µM (inactive) | 
NC1C/C(=N\O)c2c(I)sc(I)c21 (centres undefined) | 7.31 µM (inactive) | 13.1 µM (inactive) | 14.7 µM (inactive) | 22 µM (inactive) | 17.5 µM (inactive) | 15.8 µM (inactive) | 15.7 µM (inactive) | 4.23 µM (inactive) | 23.2 µM (inactive) | 13.4 µM (inactive) | 16.4 µM (inactive) | 6.7 µM (inactive) | 9.82 µM (inactive) | 19 µM (inactive) | 20.1 µM (inactive) | 17.3 µM (inactive) | 27 µM (inactive) | 19.8 µM (inactive) | 17.2 µM (inactive) | 
CCN1C(C)=NC2C(=O)c3ccccc3C(=O)C21 (centres undefined) |  |  | 50.7 µM (inactive) | 21 µM (inactive) | > 100 µM (inactive) | 27.4 µM (inactive) | 38.1 µM (inactive) | 37.8 µM (inactive) |  | 74.1 µM (inactive) |  | 55.7 µM (inactive) | 32.6 µM (inactive) | > 10 µM (inactive) | 27.4 µM (inactive) | 43 µM (inactive) | > 100 µM (inactive) |  | 82.2 µM (inactive) | 42.5 µM (inactive)
CC(=O)NC1C(OCc2ccccc2)OC(CO)C(O)C1OC(C)C(=O)NC(C(=O)NC(CCC(=O)Nc1ccc2c(c1)CN1C(=O)c3ccccc3C1=N2)C(N)=O)C(C)C (centres undefined) | > 100 µM (inactive) | > 100 µM (inactive) | > 100 µM (inactive) | > 100 µM (inactive) | > 100 µM (inactive) | > 100 µM (inactive) | > 100 µM (inactive) | > 100 µM (inactive) | > 100 µM (inactive) | > 100 µM (inactive) | > 100 µM (inactive) | > 100 µM (inactive) | > 100 µM (inactive) | > 100 µM (inactive) | > 100 µM (inactive) | > 100 µM (inactive) | > 100 µM (inactive) | > 100 µM (inactive) | > 100 µM (inactive) | 
CC(=O)N/C(=C\c1ccccc1/C=C(\NC(C)=O)c1nc2cc(C)c(C)cc2[nH]1)c1nc2cc(C)c(C)cc2[nH]1 |  | 11.8 µM (inactive) | 8.17 µM (inactive) |  | 7.43 µM (inactive) | 3.73 µM (inactive) | 26.5 µM (inactive) |  |  | 19.2 µM (inactive) | 34.4 µM (inactive) | 2.04 µM (inactive) | 31.1 µM (inactive) | 12.3 µM (inactive) |  | 15.6 µM (inactive) | 42.4 µM (inactive) |  |  | 15.6 µM (inactive)
O=C(c1ccccc1)c1ccc2cccc(OC3OC(CO)C(O)C(O)C3O)c2n1 (centres undefined) |  | > 100 µM (inactive) | > 100 µM (inactive) | > 100 µM (inactive) | > 100 µM (inactive) | 45.2 µM (inactive) | > 100 µM (inactive) |  |  | 73.6 µM (inactive) |  | > 100 µM (inactive) | > 100 µM (inactive) | > 100 µM (inactive) | > 100 µM (inactive) | > 100 µM (inactive) | 26.8 µM (inactive) |  | 51.5 µM (inactive) | > 100 µM (inactive)
CC(/C=C/c1ncccc1OCCCCCC(=O)O)=N\NC1=NCCN1 |  | > 100 µM (inactive) |  | > 100 µM (inactive) | > 100 µM (inactive) | > 100 µM (inactive) | > 100 µM (inactive) | > 100 µM (inactive) |  | > 100 µM (inactive) | > 100 µM (inactive) | > 100 µM (inactive) | > 100 µM (inactive) | > 100 µM (inactive) | > 100 µM (inactive) | > 100 µM (inactive) |  |  | > 100 µM (inactive) | > 100 µM (inactive)
